Experiment [1] addresses T1, V2122 (Streptomyces avidinii, UniProt P22629, E125D/E140N/N47D/N73G/R108K/R127K/S51D/S69N/Y107S/Y46S).
T1 construct: T7-Tag; made in house
The experiment can be described thus: SPR analysis of affinity between V2122 and compound. Type of experiment: binding. In general terms: SPR reads the build-up and loss of mass on a sensor chip optically.
Method: Interaction of V2122, which is a LISA314 modified protein purified as described above, with Compound C was investigated by surface plasmon resonance (SPR). More specifically, using Biacore T200 (GE Healthcare BioScience Corp.) as a measuring instrument, and Sensor Chip NTA (GE Healthcare BioScience Corp.) as a sensor chip, the protein was immobilized on the sensor chip by way of His-Tag having been fused to the core protein. The running buffer was prepared using HBS-P(+), as described in the manual. A two-fold dilution series was prepared in nine steps by diluting a 1600 nM solution using the running buffer. The affinity was measured in the kinetics mode, and acquired data was subjected to equilibrium analysis using Biacore T200 Evaluation Software to determine the affinity.

Experiment [2] deals with T1, V2122. The experiment can be described thus: ITC binding analysis of V2122 and compounds. To be noted: 25 μM V2122, PBS, 25° C. On the procedure:
Microcal iTC200 (MicroCal, Northampton, Mass.) was used for the measurement.
For the measurement, concentration of the stock solutions was adjusted to a ten-fold concentration of V2122 to be measured. Into a cell of a calorimeter, 25 μM of V2122 was placed, and each solution was added dropwise at a stirring speed of 1000 rpm at 25° C. Obtained data was analyzed using ORIGIN, and the titration curve was fitted based on the one-site binding isotherm.

The test system of experiment [3] is human Burkitt lymphoma Ramos tumor. Description: In vivo imaging, Ramos heterotransplantation model. Also noted: species or system nude mice. Conditions: pre-mixed with the antibody, intravenous. On the procedure:
The thus purified Rituximab-scFv-V2122 was preliminarily mixed with Psyche F-IRDye 800 (Compound 44 in Example) dissolved in DMSO (final concentration is ten-fold molar concentration), and incubated on ice for 10 minutes. The buffer was then replaced with Japanese Pharmacopoeia physiological saline (Otsuka Pharmaceutical Co., Ltd.) using Zeba Spin Desalting Column (Thermo Fisher Scientific Inc.).
Ramos cell suspension and Matrigel Matrix (Corning) were mixed in a ratio of 1:1 (5×10^6 cells/0.1 mL), and 0.1 mL of the mixed liquid was administered subcutaneously in the left side of 5 to 6-week-old female nude mice (Sankyo Labo Service Corporation, Inc.). The mice were bred for several weeks to produce tumor. One week before imaging, the feed was switched to a low fluorescence feed (iVid #1, Oriental Yeast Co., Ltd.) and the breeding was continued. […]
Rituximab-scFv-V2122 antibody (25 μg, 50 μg, 100 μg), preliminarily labeled with fluorescence by reacting it with Psyche F-IRDye 800 (Compound 44 in Example), was intravenously administered to nude mice having established human Burkitt lymphoma Ramos. For investigation into accumulation in tumor, accumulation of IRDye 800 in the tumor was evaluated 2, 24 and 48 hours after the administration, using in vivo photo-imaging instrument Clairvivo OPT plus (Shimadzu Corporation) (FIG. 19).

The subject of a further experiment is DLD1 tumor. Description: In vivo imaging, DLD1 heterotransplantation model. On the set-up: species or system nude mice. Conditions: pre-mixed with the antibody, intravenous. The procedure: The thus purified anti-epiregulin scFv-V2122 was mixed with Psyche F-IRDye 800 (Compound 44 in Example) dissolved in DMSO (final concentration was ten-fold molar concentration), and the mixture was incubated on ice for 10 minutes. The buffer was then replaced with Japanese Pharmacopoeia physiological saline (Otsuka Pharmaceutical Co., Ltd.) using Zeba Spin Desalting Column (Thermo Fisher Scientific Inc.) and was stored under cooling. Epiregulin IgG was labeled using ICG Labeling Kit-NH2 (Dojindo Laboratories).
Suspension liquid of human colorectal cancer-derived DLD1 cell and Matrigel Matrix (Corning) were mixed in a ratio of 1:1 (5×10^6 cells/0.1 mL), and 0.1 mL of the mixed liquid was administered subcutaneously in the left side of 5 to 6-week-old female nude mice (Sankyo Labo Service Corporation, Inc.). The mice were bred for several weeks to produce tumor. One week before imaging, the feed was switched to a low fluorescence feed (iVid #1, Oriental Yeast Co., Ltd.) and the breeding was continued. […]
Anti-epiregulin scFv-V2122 antibody (25 μg, 50 μg, 100 μg) preliminarily labeled with fluorescence by allowing it to react with Psyche F-IRDye 800 (Compound 44 in Example), or fluorescent-labeled epiregulin IgG (50 μg) was intravenously administered to nude mice having established DLD1 tumor. […]

For a further experiment, the system named is Rituximab-scFv-V2122. Description: Flow cytometry: binding of FITC-labeled compound to Rituximab-scFv-V2122 on RAMOS cell. Type of experiment: cell-based. Conditions: RAMOS cells pre-incubated with Rituximab-scFv-V2122; compound 3 nM, 10 nM, 30 nM. On the procedure:
The thus refolded and purified Rituximab-scFv-V2122 was evaluated regarding binding potential with RAMOS (human Burkitt lymphoma) cell (JCRB Cell Bank), which is a CD20 positive cell. More specifically, Rituximab-scFv-V2122 was diluted with PBS into three concentrations (0.05, 0.5, 5 μg/mL). 1×10^6 cells were placed in a 1.5 mL tube, centrifuged at 400×g for 4 minutes, and the supernatant was discarded to collect the cells. The collected cells were added with 100 μL of the diluted Rituximab-scFv-V2122, mixed well, and then incubated on ice for 30 minutes. The content was centrifuged again, the supernatant was discarded, added with 1 mL of PBS to wash the cells, and the cells were then collected. […] After the incubation, the content was centrifuged again, the supernatant was discarded, added with 1 mL of PBS to wash the cells, and the cells were then collected. The collected cells were suspended in 500 μL of PBS, and measured on a flow cytometer (guava easyCyte Single System; Merck Millipore).
Background: In flow cytometry, cells or beads pass a laser one at a time.

T1 sequence (P22629 37-163 Y46S/N47D/S51D/S69N/N73G/Y107S/R108K/E125D/R127K/E140N): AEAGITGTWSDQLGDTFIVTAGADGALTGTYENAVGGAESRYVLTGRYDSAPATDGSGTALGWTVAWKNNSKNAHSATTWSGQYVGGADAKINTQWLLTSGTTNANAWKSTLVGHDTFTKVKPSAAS

Broadly, the Kd is the concentration at which binding is half-saturated. As to `N=C1N[C@H]2[C@H](CS[C@H]2CCCCC(=O)NCCCCCC(=O)NCCNC(=O)CCCCCNC(=O)CCCC[C@@H]2SC[C@@H]3NC(=N)N[C@@H]32)N1` [Compound 7, (3aS,3a′S,4S,4′S,6aR,6a′R)-4,4′-(5,12,17,24-Tetraoxo-6,13,16,23-tetraazaoctacosane-1,28-diyl)bis[tetrahydro-1H-thieno[3,4-d]imidazole-2(3H)-iminium] di(2,2,2-trifluoroacetate)], the Kd at V2122 [1] came out at 3.15 nM. Moreover, the “interaction with V2122 measured by ITC” value at V2122 [2] was “exothermic, suggesting a strong binding”. In the case of `COC(=O)[C@H](CCCCNC(=O)c1cc(NC(=O)NCCOCCOCCNC(=O)CCCCC[N+]2=C(/C=C/C3=C(Oc4ccc(S(=O)(=O)O)cc4)C(=C/C=C4/N(CCCCS(=O)(=O)O)c5ccc(S(=O)(=O)O)cc5C4(C)C)/CCC3)C(C)(C)c3cc(S(=O)(=O)[O-])ccc32)cc(C(=O)NCCCC[C@H](NC(=O)CCCC[C@@H]2SC[C@@H]3NC(=N)N[C@@H]32)C(=O)OC)c1)NC(=O)CCCC[C@@H]1SC[C@@H]2NC(=N)N[C@@H]21` [Compound 44, 1-(1-((3,5-Bis(((S)-5-(5-((3aS,4S,6aR)-2-iminohexahydro-1H-thieno[3,4-d]imidazole-4-yl)pentanamido)-6-methoxy-6-oxohexyl)carbamoyl)phenyl)amino)-1,12-dioxo-5,8-dioxa-2,11-diazaheptadecane-17-yl)-2-((E)-2-((E)-3-(2-((E)-3,3-dimethyl-5-sulfo-1-(4-sulfobutyl)indoline-2-ilidene)ethylidene)-2-(4-sulfophenoxy)cyclohex-1-ene-1-yl)vinyl)-3,3-dimethyl-3H-indol-1-ium-5-sulfonate], the “binding with Rituximab-scFv-V2122 antibody in vivo” value in experiment [3] is “remain bound in vivo”. For the same compound, the “binding with anti-epiregulin scFv-V2122 antibody in vivo” value with DLD1 tumor was “remain bound in vivo”. Turning to `N=C1N[C@H]2[C@H](CS[C@H]2CCCCC(=O)NCCCCCC(=O)Nc2cc(NC(=O)CCCCCNC(=O)CCCC[C@@H]3SC[C@@H]4NC(=N)N[C@@H]43)cc(C(=O)NCCOCCOCCNC(=S)Nc3ccc4c(c3)C(=O)OC43c4ccc(O)cc4Oc4cc(O)ccc43)c2)N1` [FITC-labeled Compound B], the “binding with Rituximab-scFv-V2122, shifts of fluorescence intensity” value in the experiment with Rituximab-scFv-V2122 is given as “concentration-dependent shifts of fluorescence intensity were also confirmed”. Take `O=C(O)CCCC[C@@H]1SC[C@@H]2NC(=O)N[C@@H]21` [biotin, reference compound]: the “interaction with V2122 measured by ITC” value on V2122 [2] is reported as “non-interactive”.

The values are drawn from patent US11161884B2 (SAVID THERAPEUTICS INC., priority 2014, dated 2021).
